Source: patent US20100143897A1, “Materials and Methods for Assaying for Glyoxylate” (University of South Florida, priority 2005, published 2010)

Tested on: peptidylglycine α-amidating monooxygenase (PAM)
Test: PAM treatment of hippurate: benzamide by HPLC, glyoxylate by malate synthase/malate dehydrogenase/MTS/PMS system
Assay type: biochemical
Details: PAM added to hippurate
Experimental: Spectrophotometric enzyme-linked assays for glyoxylate were initiated by the addition of malate synthase and malate dehydrogenase. […] The absorbance at 490 nm was measured after one hour incubation at 37° C. in the dark. The small amount of MTS reduced for the zero glyoxylate control was subtracted from that obtained in the presence of glyoxylate. Hippurate (N-benzoylglycine, C6H5—CO—NH—CH2—COO^−) is a PAM substrate that is oxidatively converted to benzamide and glyoxylate. […] At 10 min intervals over a period of 110 minutes, 45 μl aliquots were removed and added to 10 μl of 6% (v/v) trifluoroacetic acid to terminate the reaction. Percent conversion of hippurate to benzamide was determined at each time interval by reverse-phase HPLC. […] Following ascorbate removal the addition of 100 ul enzyme couple and PMS/MTS brought the assay to a final volume of 1 ml which contained 100 mM TEA-HCl pH 7.8, 10 mM MgCl2, 400 μM acetyl-CoA, 500 μM NAD^+, 6 U/ml malate synthase, 6 U/ml malate dehydrogenase, and 12 units ascorbate oxidase. […] A control for this experiment was performed at each time point, and contained no hippurate.

Q: Which results are given for `O=C(O)CNC(=O)c1ccccc1` [Hippurate, N-benzoylglycine]?
A: Benzamide Produced (Time 40): 0.58 mM; Glyoxylate Produced (Time 40): 0.69 mM; Benzamide Produced (Time 50): 0.70 mM; Glyoxylate Produced (Time 50): 0.67 mM; Benzamide Produced (Time 60): 0.80 mM; Glyoxylate Produced (Time 60): 0.71 mM; Benzamide Produced (Time 70): 0.90 mM; Glyoxylate Produced (Time 70): 0.75 mM; Benzamide Produced (Time 80): 0.98 mM; Glyoxylate Produced (Time 80): 0.77 mM; Benzamide Produced (Time 90): 1.1 mM; Glyoxylate Produced (Time 90): 1.3 mM; Benzamide Produced (Time 100): 1.2 mM; Glyoxylate Produced (Time 100): 1.3 mM; Benzamide Produced (Time 110): 1.3 mM; Glyoxylate Produced (Time 110): 1.3 mM
